# In patent US10294234B2, “HIV inhibitor compounds” (priority 2017, dated 2019):
# pEC50: −log10 of the molar value. Read-outs that look alike come from different tables or passages of the source.
# System: HIV-1 (IIIB) in MT-4 cells
# Assay: MT-4 HIV assay
# Assay type: cell-based
# Experimental: Compounds were tested in a high-throughput 384-well assay format for their ability to inhibit the replication of HIV-1 (IIIB) in MT-4 cells. Compounds were serially diluted (1:3) in DMSO on 384-well polypropylene plates and further diluted 200-fold into complete RPMI media (10% FBS, 1% P/S) using the Biotek Micro Flow and Agilent ECHO acoustic dispenser. Each plate contained up to 8 test compounds, with negative (No Drug Control) and 5 uM AZT positive controls. MT-4 cells were pre-infected with 10 uL of either RPMI (mock-infected) or a fresh 1:250 dilution of an HIV-1 (IIIB) concentrated virus stock. Infected and uninfected MT-4 cells were further diluted in complete RPMI media and added to each plate using a Micro Flow dispenser. After 5 days incubation in a humidified and temperature controlled incubator (37° C.), Cell Titer Glo (Promega) was added to the assay plates to quantify the amount of luciferase.
# [1] = Human immunodeficiency virus 1, MT4, 120 h, HIV-1 (IIIB), MT-4 cells, 5 days, Cell Titer Glo, read-out: EC50
SMILES,pEC50 [1],other results
"COC(=O)N[C@H](C(=O)N[C@@H](Cc1ccc(C#Cc2ccc(N3CC4CCC(C3)N4C(=O)[C@@H]3CCCO3)nc2)cc1)[C@@H](O)CN(Cc1c(F)cc(-c2ccccn2)cc1F)NC(=O)[C@@H](NC(=O)OC)C(C)(C)C)C(C)(C)C [Example 225, Methyl ((5S,8S,9S,14S)-5-(tert-butyl)-11-(2,6-difluoro-4-(pyridin-2-yl)benzyl)-9-hydroxy-15,15-dimethyl-3,6,13-trioxo-8-(4-((6-(8-((S)-tetrahydrofuran-2-carbonyl)-3,8-diazabicyclo[3.2.1]octan-3-yl)pyridin-3-yl)ethynyl)benzyl)-2-oxa-4,7,11,12-tetraazahexadecan-14-yl)carbamate]",8.37,–
"COC(=O)N[C@H](C(=O)N[C@@H](Cc1ccc(C#Cc2ccc(N3CC4CC(C3)N4C3COC3)nc2)cc1)[C@@H](O)CN(Cc1c(F)cc(-c2ccc(F)cn2)cc1F)NC(=O)[C@@H](NC(=O)OC)C(C)(C)C(F)(F)F)C(C)(C)C(F)(F)F [Example 139, Methyl ((5S,10S,11S,14S)-8-(2,6-difluoro-4-(5-fluoropyridin-2-yl)benzyl)-16,16,16-trifluoro-10-hydroxy-15,15-dimethyl-11-(4-((6-(6-(oxetan-3-yl)-3,6-diazabicyclo[3.1.1]heptan-3-yl)pyridin-3-yl)ethynyl)benzyl)-3,6,13-trioxo-5-(1,1,1-trifluoro-2-methylpropan-2-yl)-2-oxa-4,7,8,12-tetraazahexadecan-14-yl)carbamateate]",–,"pEC50 (HIV-1 (IIIB), MT-4 cells, 5 days, Cell Titer Glo, read-out: EC50): 8.41"
"COC(=O)N[C@H](C(=O)N[C@@H](Cc1ccc(C#Cc2ccc(N3CC4CCC(C3)N4C3COC3)nc2)cc1)[C@@H](O)CN(Cc1ccc(-c2ccc(F)cn2)cc1)NC(=O)[C@@H](NC(=O)OC)C(C)(C)C(F)(F)F)C(C)(C)C(F)(F)F [Example 111, Methyl ((5S,8S,9S,14S)-16,16,16-trifluoro-11-(4-(5-fluoropyridin-2-yl)benzyl)-9-hydroxy-15,15-dimethyl-8-(4-((6-(8-(oxetan-3-yl)-3,8-diazabicyclo [3.2.1]octan-3-yl)pyridin-3-yl)ethynyl)benzyl)-3,6,13-trioxo-5-(1,1,1-trifluoro-2-methylpropan-2-yl)-2-oxa-4,7,11,12-tetraazahexadecan-14-yl)carbamate]",–,"pEC50 (Human immunodeficiency virus 1, MT4, 120 h): 8.14"
"COC(=O)N[C@H](C(=O)NN(Cc1c(F)cc(-c2nnc(C3CC3)s2)cc1F)C[C@H](O)[C@H](Cc1ccc(C#Cc2ccc(N3CC4CCC(C3)N4C3COC3)nc2)cc1)NC(=O)[C@@H](NC(=O)OC)C(C)(C)C(F)(F)F)C(C)(C)C [Example 76, Methyl ((5S,8S,9S,14S)-11-(4-(5-cyclopropyl-1,3,4-thiadiazol-2-yl)-2,6-difluorobenzyl)-9-hydroxy-15,15-dimethyl-8-(4-((6-(8-(oxetan-3-yl)-3,8-diazabicyclo[3.2.1]octan-3-yl)pyridin-3-yl)ethynyl)benzyl)-3,6,13-trioxo-5-(1,1,1-trifluoro-2-methylpropan-2-yl)-2-oxa-4,7,11,12-tetraazahexadecan-14-yl)carbamate]",8.45,–
"COC(=O)N[C@H](C(=O)N[C@@H](Cc1ccc(C#Cc2ccc(N3CC4CCC(C3)N4)nc2)cc1)[C@@H](O)CN(Cc1c(F)cc(-c2cnn(C(F)F)c2)cc1F)NC(=O)[C@@H](NC(=O)OC)C(C)(C)C(F)(F)F)C(C)(C)C(F)(F)F [Example 162, Methyl ((5S,8S,9S,14S)-8-(4-((6-(3,8-diazabicyclo[3.2.1]octan-3-yl)pyridin-3-yl)ethynyl)benzyl)-11-(4-(1-(difluoromethyl)-1H-pyrazol-4-yl)-2,6-difluorobenzyl)-16,16,16-trifluoro-9-hydroxy-15,15-dimethyl-3,6,13-trioxo-5-(1,1,1-trifluoro-2-methylpropan-2-yl)-2-oxa-4,7,11,12-tetraazahexadecan-14-yl)carbamate]",7.91,–
"COC(=O)N[C@H](C(=O)N[C@@H](Cc1ccc(C#Cc2ccc(N3C[C@H]4C[C@@H]3CN4C3COC3)nc2)cc1)[C@@H](O)CN(Cc1ccc(-c2ccn(C(F)F)n2)cc1)NC(=O)[C@@H](NC(=O)OC)C(C)(C)C(F)(F)F)C(C)(C)C(F)(F)F [Example 29, Methyl ((5S,8S,9S,14S)-11-(4-(1-(difluoromethyl)-1H-pyrazol-3-yl)benzyl)-16,16,16-trifluoro-9-hydroxy-15,15-dimethyl-8-(4-((6-((1R,4R)-5-(oxetan-3-yl)-2,5-diazabicyclo [2.2.1]heptan-2-yl)pyridin-3-yl)ethynyl)benzyl)-3,6,13-trioxo-5-(1,1,1-trifluoro-2-methylpropan-2-yl)-2-oxa-4,7,11,12-tetraazahexadecan-14-yl)carbamate]",8.40,–
"COC(=O)N[C@H](C(=O)N[C@@H](Cc1ccc(C#Cc2ccc(N3CC4CCC(C3)N4C3COC3)cc2)cc1)[C@@H](O)CN(Cc1c(F)cc(-c2ccccn2)cc1F)NC(=O)[C@@H](NC(=O)OC)C(C)(C)C(F)(F)F)C(C)(C)C(F)(F)F [Example 177, Methyl ((5S,8S,9S,14S)-11-(2,6-difluoro-4-(pyridin-2-yl)benzyl)-16,16,16-trifluoro-9-hydroxy-15,15-dimethyl-8-(4-((4-(8-(oxetan-3-yl)-3,8-diazabicyclo [3.2.1]octan-3-yl)phenyl)ethynyl)benzyl)-3,6,13-trioxo-5-(1,1,1-trifluoro-2-methylpropan-2-yl)-2-oxa-4,7,11,12-tetraazahexadecan-14-yl)carbamate]",8.09,–
"COC(=O)N[C@H](C(=O)N[C@@H](Cc1ccc(C#Cc2ccc(N3C[C@@H](C)O[C@@H](C)C3)nc2)cc1)[C@@H](O)CN(Cc1c(F)cc(-c2cnn(C(F)F)c2)cc1F)NC(=O)[C@@H](NC(=O)OC)C(C)(C)C(F)(F)F)C(C)(C)C(F)(F)F [Example 132, Methyl ((5S,8S,9S,14S)-11-(4-(1-(difluoromethyl)-1H-pyrazol-4-yl)-2,6-difluorobenzyl)-8-(4-((6-((2S,6R)-2,6-dimethylmorpholino)pyridin-3-yl)ethynyl)benzyl)-16,16,16-trifluoro-9-hydroxy-15,15-dimethyl-3,6,13-trioxo-5-(1,1,1-trifluoro-2-methylpropan-2-yl)-2-oxa-4,7,11,12-tetraazahexadecan-14-yl)carbamate]",7.74,–
"COC(=O)N[C@H](C(=O)N[C@@H](Cc1ccc(C#Cc2cnc(N3CC4CCC(C3)N4C3COC3)nc2)cc1)[C@@H](O)CN(Cc1ccc(-c2ccn(C3CC3)n2)cc1)NC(=O)[C@@H](NC(=O)OC)C(C)(C)C(F)(F)F)C(C)(C)C(F)(F)F [Example 33, Methyl ((5S,8S,9S,14S)-11-(4-(1-cyclopropyl-1H-pyrazol-3-yl)benzyl)-16,16,16-trifluoro-9-hydroxy-15,15-dimethyl-8-(4-((2-(8-(oxetan-3-yl)-3,8-diazabicyclo [3.2.1]octan-3-yl)pyrimidin-5-yl)ethynyl)benzyl)-3,6,13-trioxo-5-(1,1,1-trifluoro-2-methylpropan-2-yl)-2-oxa-4,7,11,12-tetraazahexadecan-14-yl)carbamate]",8.33,–
